Experimental data taken from patent US11384078B2, “5,6-fused-bicyclic compounds and compositions for the treatment of parasitic diseases” (NOVARTIS AG, priority 2017, dated 2022).
Like-named read-outs stand apart in the source and are kept apart here.

Key:
[1] = test system: Leishmania donovani axenic amastigote; test: In vitro assay for growth inhibition of Leishmania donovani axenic amastigote (Cell TiterGlo luminescence); type: cell-based; conditions: Leishmania donovani, L. donovani axenic amastigotes in vitro; read-out: L. donovani amastigotes EC50
Procedure: Abbreviations as used herein below have the corresponding meaning: • CPRG Chlorophenol Red-P-D-galactopyranoside • ATP adenosine triphosphate • BSA bovine serum albumin • DMSO dimethyl sulfoxide • FBS fetal bovine serum • PBS phosphate buffered saline • RPMI 1640 Rosweli Park Memorial Institute (RPMI) 1640 medium In Vitro Assay for Growth Inhibition of Leishmania donovani Axenic Amastiqote
Leishmania donovani axenic amastigote parasites are grown at 37° C., 5% CO2 in media made of RPMI 1640, 4 mM L-glutamine, 20% heat inactivated FBS, 100 units/ml of penicillin and 100 μg/ml of streptomycin, 23 μM folic acid, 100 μM adenosine, 22 mM D-glucose, 25 mM MES. The pH of media is adjusted to 5.5 at 37° C. using HCl. 20 μL of media is first dispensed into 384 well plates and 100 nL of the compounds of invention in DMSO are added to the plate wells. At the same time control compounds and DMSO are added to plates to serve as the positive and negative controls, respectively. 40 μL of parasite culture (9600 parasites) are then added to the plate wells. The plates are then placed into incubators. After two days incubation, 20 μL of Cell TiterGlo® (Promega) is added to the plate wells. The luminescence signal of each well is measured using the Envision reader (Perkin Elmer).

[2] = test system: Trypanosoma brucei brucei (Lister 427) strain; test: Assay for growth inhibition against Trypanosoma brucei brucei (Cell TiterGlo ATP luminescence); type: cell-based; conditions: T. brucei brucei (Lister 427), read-out: T. Brucei (HAT) EC50
Procedure: Assay for Growth Inhibition Against Trypanosoma brucei brucei
The proliferation is quantified by the addition of Cell TiterGlo® (Promega®) a luminescent cell viability assay that measures the number of viable cells in culture based on the quantification of cellular ATP amount, which is an indicator of metabolically active cells.
Trypanosoma brucei brucei (Lister 427) strain was grown in Hirumi 9 (HMI-9) media supplemented with 10% v/v fetal bovine serum (FBS) and 10% v/v serum plus. For measurement of cell proliferation inhibition, test compounds were three fold serially diluted in duplicates to 384-well white plates, resulting in 10 dilutions for each compound. A volume of 40 μL of T. b. brucei culture (10,000 parasites/mL) was added to each well, and the assay plates were incubated at 37° C. for 2 days in a CO2 incubator. Growth inhibition was monitored by measuring ATP levels, which, is used as a surrogate marker for growth. Relative luminescence units were measured using TECAN® M1000 after 30 min of adding 40 μl of Cell TiterGlo®. IC50 values were determined by analyzing the data using HELIOS software. IC50 is defined as the lowest concentration of the compound that inhibited 50% growth of the T. b. brucei wild type strain compared to untreated controls.

Question: For `O=C(Nc1ccc(F)c(-n2cc3cc(-c4ccccn4)cnc3n2)c1)C1CC1` [Compound 12, N-{4-fluoro-3-[5-(pyridin-2-yl)-2H-pyrazolo[3,4-b]pyridin-2-yl]phenyl}cyclopropanecarboxamide], which EC50 [1] is on record?
Answer: 41 nM

Question: What about the EC50 ([2]; Trypanosoma brucei) of the same compound?
Answer: < 23 nM

Question: Which EC50 [1] does the source give for `O=C(CC1CC1)Nc1ccc(F)c(-n2cc3cc(-c4ccccn4)cnc3n2)c1` [Compound 13, 2-cyclopropyl-N-{4-fluoro-3-[5-(pyridin-2-yl)-2H-pyrazolo[3,4-b]pyridin-2-yl]phenyl}acetamide] here?
Answer: 71 nM

Question: What about the EC50 ([2]; Trypanosoma brucei) of the same compound?
Answer: < 23 nM

Question: How did the EC50 [2] turn out when `O=C(Nc1ccc(F)c(-n2cc3cc(N4CC(F)C4)cnc3n2)c1)N1CCC1` [Compound 40, N-{4-fluoro-3-[5-(3-fluoroazetidin-1-yl)-2H-pyrazolo[3,4-b]pyridin-2-yl]phenyl}azetidine-1-carboxamide] was run?
Answer: < 23 nM

Question: How did the EC50 [2] turn out when `O=C(Nc1ccc(F)c(-n2cc3cc(N4CC(F)C4)cnc3n2)c1)N1CC(F)C1` [Compound 58, 3-fluoro-N-{4-fluoro-3-[5-(3-fluoroazetidin-1-yl)-2H-pyrazolo[3,4-b]pyridin-2-yl]phenyl}azetidine-1-carboxamide] was run?
Answer: < 23 nM

Question: Which EC50 [2] does the source give for `O=C(Nc1ccc(F)c(-n2cc3cc(N4CC(F)(F)C4)cnc3n2)c1)N1CCC1` [Compound 92, N-{3-[5-(3,3-difluoroazetidin-1-yl)-2H-pyrazolo[3,4-b]pyridin-2-yl]-4-fluorophenyl}azetidine-1-carboxamide] here?
Answer: < 23 nM

Question: For `CC(C)c1cnc2nn(-c3cc(NC(=O)C4CC(F)C4)ccc3F)cc2c1` (centres unmarked) [Compound 121, 3-fluoro-N-{4-fluoro-3-[5-(propan-2-yl)-2H-pyrazolo[3,4-b]pyridin-2-yl]phenyl}cyclobutane-1-carboxamide], which EC50 [1] is on record?
Answer: 210 nM

Question: What about the EC50 ([2]; Trypanosoma brucei) of the same compound?
Answer: 120 nM

Question: Which EC50 [1] does the source give for `O=C(Nc1ccc(F)c(-n2cc3cc(N4CC5CCC(C4)O5)cnc3n2)c1)N1CC(F)C1` [Compound 184, 3-fluoro-N-[4-fluoro-3-(5-{8-oxa-3-azabicyclo[3.2.1]octan-3-yl}-2H-pyrazolo[3,4-b]pyridin-2-yl)phenyl}azetidine-1-carboxamide] here?
Answer: 7.3 nM

Question: And the EC50 ([2]; Trypanosoma brucei)?
Answer: < 23 nM

Question: Which results are given for `COCCNc1cnc2nn(-c3cc(NC(=O)N4CC(F)C4)ccc3F)cc2c1` [Compound 185, 3-fluoro-N-(4-fluoro-3-{5-[(2-methoxyethyl)amino]-2H-pyrazolo[3,4-b]pyridin-2-yl]phenyl)azetidine-1-carboxamide]?
Answer: EC50 [1]: 200 nM; EC50 ([2]; Trypanosoma brucei): < 23 nM

Question: For `O=C(Nc1ccc(F)c(-n2cc3cc(N4CCn5cnnc5C4)cnc3n2)c1)N1CC(F)C1` [Compound 186, 3-fluoro-N-[4-fluoro-3-(5-{5H,6H,7H,8H-[1,2,4]triazolo[4,3-a]pyrazin-7-yl}-2H-pyrazolo[3,4-b]pyridin-2-yl)phenyl}azetidine-1-carboxamide], which EC50 [1] is on record?
Answer: 460 nM

Question: And the EC50 ([2]; Trypanosoma brucei)?
Answer: 240 nM

Question: With `O=C(Nc1ccc(F)c(-n2cc3cc(-c4ncccc4F)cnc3n2)c1)N1CC(F)C1` [Compound 187, 3-fluoro-N-(4-fluoro-3-(5-(3-fluoropyridin-2-yl)-2H-pyrazolo[3,4-b]pyridin-2-yl)phenyl)azetidine-1-carboxamide] as the compound, how does the EC50 [1] read?
Answer: 1.3 nM

Question: And the EC50 ([2]; Trypanosoma brucei)?
Answer: < 23 nM

Question: With `O=C(Nc1ccc(F)c(-n2cc3cc(-c4ncccc4Cl)cnc3n2)c1)N1CC(F)C1` [Compound 188, N-{3-[5-(3-chloropyridin-2-yl)-2H-pyrazolo[3,4-b]pyridin-2-yl]-4-fluorophenyl}-3-fluoroazetidine-1-carboxamide] as the compound, how does the EC50 [1] read?
Answer: 2.4 nM

Question: And the EC50 ([2]; Trypanosoma brucei)?
Answer: < 23 nM

Question: With `O=C(Nc1ccc(F)c(-n2cc3cc(-c4cccnc4)cnc3n2)c1)N1CC(F)C1` [Compound 189, 3-fluoro-N-{4-fluoro-3-[5-(pyridin-3-yl)-2H-pyrazolo[3,4-b]pyridin-2-yl]phenyl}azetidine-1-carboxamide] as the compound, how does the EC50 [1] read?
Answer: 3 nM

Question: And the EC50 ([2]; Trypanosoma brucei)?
Answer: < 23 nM

Question: Which EC50 [2] does the source give for `C[C@@H]1CN(c2cnc3nn(-c4cc(NC(=O)N5CC(F)C5)ccc4F)cc3c2)C[C@H](C)O1` [Compound 190, N-(3-{5-[(2R,6S)-2,6-dimethylmorpholin-4-yl]-2H-pyrazolo[3,4-b]pyridin-2-yl]-4-fluorophenyl)-3-fluoroazetidine-1-carboxamide] here?
Answer: > 50000 nM

Question: Which EC50 [2] does the source give for `O=C(Nc1ccc(F)c(-n2cc3cc(N4CCC45COC5)cnc3n2)c1)N1CC(F)C1` [Compound 191, 3-fluoro-N-[4-fluoro-3-(5-{6-oxa-1-azaspiro[3.3]heptan-1-yl}-2H-pyrazolo[3,4-b]pyridin-2-yl)phenyl}azetidine-1-carboxamide] here?
Answer: < 23 nM

Question: For `COCC1CN(c2cnc3nn(-c4cc(NC(=O)N5CC(F)C5)ccc4F)cc3c2)C1` [Compound 192], which EC50 [2] is on record?
Answer: < 23 nM

Question: How did the EC50 [2] turn out when `O=C(Nc1ccc(F)c(-n2cc3cc(N4CC5(CC5)C4)cnc3n2)c1)N1CC(F)C1` [Compound 193, N-[3-(5-{5-azaspiro[2.3]hexan-5-yl}-2H-pyrazolo[3,4-b]pyridin-2-yl)-4-fluorophenyl}-3-fluoroazetidine-1-carboxamide] was run?
Answer: < 23 nM

Question: `O=C(Nc1ccc(F)c(-n2cc3cc(N4C[C@@H](F)[C@H](F)C4)cnc3n2)c1)N1CC(F)C1` [Compound 194, N-(3-{5-[(3R,4R)-3,4-difluoropyrrolidin-1-yl]-2H-pyrazolo[3,4-b]pyridin-2-yl]-4-fluorophenyl)-3-fluoroazetidine-1-carboxamide] was tested. Which EC50 [2] did it give?
Answer: < 23 nM

Question: How did the EC50 [1] turn out when `[2H]C([2H])([2H])c1nc(C)c(C(=O)Nc2ccc(F)c(-n3cc4cc(-c5ncccc5C)cnc4n3)c2)o1` [Compound 278, N-{4-fluoro-3-[5-(3-methylpyridin-2-yl)-2H-pyrazolo[3,4-b]pyridin-2-yl]phenyl}-2-(^2H3)methyl-4-methyl-1,3-oxazole-5-carboxamide] was run?
Answer: 7 nM

Question: And the EC50 ([2]; Trypanosoma brucei)?
Answer: 13 nM

Question: Which results are given for `O=C(Nc1ccc(F)c(-n2cc3cc(C4CCCCO4)cnc3n2)c1)N1CCC1` (centres unmarked) [Compound 288, N-(4-fluoro-3-(5-(tetrahydro-2H-pyran-2-yl)-2H-pyrazolo[3,4-b]pyridin-2-yl)phenyl)azetidine-1-carboxamide]?
Answer: EC50 [1]: 176 nM; EC50 ([2]; Trypanosoma brucei): 260 nM

Question: Which results are given for `O=C(Nc1ccc(F)c(-n2cc3cc(C4COCCO4)cnc3n2)c1)N1CCC1` (centres unmarked) [Compound 289, N-{3-[5-(1,4-dioxan-2-yl)-2H-pyrazolo[3,4-b]pyridin-2-yl]-4-fluorophenyl}azetidine-1-carboxamide]?
Answer: EC50 [1]: 199 nM; EC50 ([2]; Trypanosoma brucei): 208 nM
